# How the values were obtained:
# Test in all cases: relative viability (nuclei count vs DMSO), 5 days (fraction); higher = more cells survive
# UMC-11 = system: UMC-11
# Outline: (§1)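 Cells from lung cancer lines were seeded into 1536-well plates and, one day later, dosed by pin tool. Treatments were either a single drug or a fixed dose of an anchor drug with five library-drug doses (not always all listed) in √10 steps. After 5 days, nuclei were stained in a one-step fixation (final 0.05% Triton X-100, 1% formaldehyde, 1 ug/ml Hoechst) and counted on 4× images, and relative viability is the treated-to-vehicle nuclei ratio, as the median of duplicate plates.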
# NCI-H1734 = system: NCI-H1734
# Outline: as §1
# SK-LU-1 = system: SK-LU-1
# Outline: as §1
# COR-L23 = system: COR-L23
# Outline: as §1
# LXF-289 = system: LXF-289
# Outline: as §1
# NCI-H2085 = system: NCI-H2085
# Outline: as §1
# RERF-LC-KJ = system: RERF-LC-KJ
# Outline: as §1
# NCI-H1437 = system: NCI-H1437
# Outline: as §1
# NCI-H1651 = system: NCI-H1651
# Outline: as §1
# NCI-H3122 = system: NCI-H3122
# Outline: as §1
# NCI-H23 = system: NCI-H23
# Outline: as §1
# NCI-H647 = system: NCI-H647
# Outline: as §1
# A-427 = system: A-427
# Outline: as §1
# NCI-H358 = system: NCI-H358
# Outline: as §1
# EKVX = system: EKVX
# Outline: as §1
# SW 900 = system: SW 900
# Outline: as §1
# NCI-H2347 = system: NCI-H2347
# Outline: as §1
# NCI-H322M = system: NCI-H322M
# Outline: as §1
# NCI-H460 = system: NCI-H460
# Outline: as §1
# NCI-H2087 = system: NCI-H2087
# Outline: as §1
# LK-2 = system: LK-2
# Outline: as §1
# NCI-H2405 = system: NCI-H2405
# Outline: as §1
# H3255 = system: H3255
# Outline: as §1
# PC-14 = system: PC-14
# Outline: as §1
# NCI-H1993 = system: NCI-H1993
# Outline: as §1
structure (smiles),measurement,setting,value
Nc1cccc2c1CN(C1CCC(=O)NC1=O)C2=O (stereo not given) [Lenalidomide] + Nc1nc2[nH]cc(CCc3ccc(C(=O)N[C@@H](CCC(=O)O)C(=O)O)cc3)c2c(=O)[nH]1 [Pemetrexed] (partner 0.2 µM),relative viability,UMC-11; first compound 0.253 µM,0.93
same,relative viability,UMC-11; first compound 0.8 µM,0.72
same,relative viability,UMC-11; first compound 2.53 µM,0.84
same,relative viability,UMC-11; first compound 8 µM,0.8
same,relative viability,NCI-H1734; first compound 0.253 µM,0.465
same,relative viability,NCI-H1734; first compound 0.8 µM,0.465
same,relative viability,NCI-H1734; first compound 2.53 µM,0.433
same,relative viability,NCI-H1734; first compound 8 µM,0.479
same,relative viability,SK-LU-1; first compound 0.253 µM,1.04
same,relative viability,SK-LU-1; first compound 0.8 µM,1.07
same,relative viability,SK-LU-1; first compound 2.53 µM,1.12
same,relative viability,SK-LU-1; first compound 8 µM,1.11
same,relative viability,COR-L23; first compound 0.253 µM,0.192
same,relative viability,COR-L23; first compound 0.8 µM,0.191
same,relative viability,COR-L23; first compound 2.53 µM,0.191
same,relative viability,COR-L23; first compound 8 µM,0.189
same,relative viability,LXF-289; first compound 0.253 µM,0.904
same,relative viability,LXF-289; first compound 0.8 µM,1.13
same,relative viability,LXF-289; first compound 2.53 µM,0.939
same,relative viability,LXF-289; first compound 8 µM,1.06
same,relative viability,NCI-H2085; first compound 0.253 µM,0.884
same,relative viability,NCI-H2085; first compound 0.8 µM,0.96
same,relative viability,NCI-H2085; first compound 2.53 µM,0.924
same,relative viability,NCI-H2085; first compound 8 µM,0.873
same,relative viability,RERF-LC-KJ; first compound 0.253 µM,0.542
same,relative viability,RERF-LC-KJ; first compound 0.8 µM,0.412
same,relative viability,RERF-LC-KJ; first compound 2.53 µM,0.503
same,relative viability,RERF-LC-KJ; first compound 8 µM,0.503
same,relative viability,NCI-H1437; first compound 0.253 µM,0.294
same,relative viability,NCI-H1437; first compound 0.8 µM,0.33
same,relative viability,NCI-H1437; first compound 2.53 µM,0.327
same,relative viability,NCI-H1437; first compound 8 µM,0.323
same,relative viability,NCI-H1651; first compound 0.253 µM,0.608
same,relative viability,NCI-H1651; first compound 0.8 µM,0.497
same,relative viability,NCI-H1651; first compound 2.53 µM,0.586
same,relative viability,NCI-H1651; first compound 8 µM,0.582
same,relative viability,NCI-H3122; first compound 0.253 µM,0.205
same,relative viability,NCI-H3122; first compound 0.8 µM,0.202
same,relative viability,NCI-H3122; first compound 2.53 µM,0.193
same,relative viability,NCI-H3122; first compound 8 µM,0.23
same,relative viability,NCI-H23; first compound 0.253 µM,0.589
same,relative viability,NCI-H23; first compound 2.53 µM,0.861
same,relative viability,NCI-H23; first compound 8 µM,0.694
same,relative viability,NCI-H647; first compound 0.253 µM,0.173
same,relative viability,NCI-H647; first compound 0.8 µM,0.164
same,relative viability,NCI-H647; first compound 2.53 µM,0.178
same,relative viability,NCI-H647; first compound 8 µM,0.182
same,relative viability,A-427; first compound 0.253 µM,0.989
same,relative viability,A-427; first compound 0.8 µM,0.931
same,relative viability,A-427; first compound 2.53 µM,1.05
same,relative viability,A-427; first compound 8 µM,0.993
same,relative viability,NCI-H358; first compound 0.8 µM,0.197
same,relative viability,NCI-H358; first compound 2.53 µM,0.182
same,relative viability,NCI-H358; first compound 8 µM,0.179
same,relative viability,EKVX; first compound 0.253 µM,0.333
same,relative viability,EKVX; first compound 0.8 µM,0.33
same,relative viability,EKVX; first compound 2.53 µM,0.466
same,relative viability,EKVX; first compound 8 µM,0.396
same,relative viability,SW 900; first compound 2.53 µM,0.509
same,relative viability,SW 900; first compound 8 µM,0.477
same,relative viability,NCI-H2347; first compound 0.253 µM,0.405
same,relative viability,NCI-H2347; first compound 0.8 µM,0.435
same,relative viability,NCI-H2347; first compound 2.53 µM,0.415
same,relative viability,NCI-H2347; first compound 8 µM,0.431
same,relative viability,NCI-H322M; first compound 0.253 µM,0.631
same,relative viability,NCI-H322M; first compound 0.8 µM,0.635
same,relative viability,NCI-H322M; first compound 2.53 µM,0.664
same,relative viability,NCI-H322M; first compound 8 µM,0.697
same,relative viability,NCI-H460; first compound 0.253 µM,0.0811
same,relative viability,NCI-H460; first compound 0.8 µM,0.068
same,relative viability,NCI-H460; first compound 2.53 µM,0.0659
same,relative viability,NCI-H460; first compound 8 µM,0.0603
same,relative viability,NCI-H2087; first compound 0.253 µM,0.65
same,relative viability,NCI-H2087; first compound 2.53 µM,0.642
same,relative viability,NCI-H2087; first compound 8 µM,0.671
same,relative viability,LK-2; first compound 0.253 µM,0.301
same,relative viability,LK-2; first compound 0.8 µM,0.167
same,relative viability,LK-2; first compound 2.53 µM,0.227
same,relative viability,LK-2; first compound 8 µM,0.175
same,relative viability,NCI-H2405; first compound 0.253 µM,0.999
same,relative viability,NCI-H2405; first compound 0.8 µM,0.988
same,relative viability,NCI-H2405; first compound 2.53 µM,1.08
same,relative viability,NCI-H2405; first compound 8 µM,0.94
same,relative viability,H3255; first compound 0.253 µM,0.65
same,relative viability,H3255; first compound 0.8 µM,0.565
same,relative viability,H3255; first compound 2.53 µM,0.585
same,relative viability,H3255; first compound 8 µM,0.605
same,relative viability,PC-14; first compound 0.253 µM,0.126
same,relative viability,PC-14; first compound 0.8 µM,0.151
same,relative viability,PC-14; first compound 2.53 µM,0.139
same,relative viability,PC-14; first compound 8 µM,0.16
same,relative viability,NCI-H1993; first compound 0.253 µM,0.554
same,relative viability,NCI-H1993; first compound 0.8 µM,0.561
same,relative viability,NCI-H1993; first compound 2.53 µM,0.63
same,relative viability,NCI-H1993; first compound 8 µM,0.452
